Here are results for 3 molecules from patent US8710233B2 (Gruenenthal GmbH, priority 2005, dated 2014).

For assay [1], the system named is capsaicin induced hypothermie. Kind of assay: Hypothermie assay in the mouse (capsaicin induced hypothermie). In kind it is in vivo. Particulars: mouse, read-out: inhibition hypothermie (n = 5); for inhibition in vivo at 0.1 mg/kg: 0.1 mg/kg body weight po.
For assay [2], the system named is cold allodynia after chronic constriction injury. Kind of assay: Neuropathic pain in mice, Bennet model (chronic constriction injury, cold allodynia). In kind it is in vivo. Conditions: mouse. The source says: VI. Neuropathic Pain in Mice
The efficacy of compounds of general formula I in the treatment of neuropathic pain is investigated by using the Bennet modell (chronic constriction injury; Bennett and Xie, 1988, Pain 33: 87-107.
NMRI mice (weight 16 to 18 g) under ketavet-rompun anaesthesia are supplied with three loose ligatures of the right nervus ischiaticus. The animals develop an oversensitivity to cold at the position of the pad that is innervated by the injured nerve which—after a recovery period of one week—is quantified over a period of three weeks by using a metal plate that is cooled to 4° C. (cold allodynia). The animals are observed for a period of 2 minutes on this plate and the number of brisk withdrawal reactions of the injured nerve is counted. […] The group size is n=10, the stastical significance of efficacy against allodynia (*=p<0.05) is determined by analysis of variance with repeated measurements and post hoc analysis with Bonferroni adjustment.

A further assay has as its target T1, vanilloid receptor (VR1) (Homo sapiens, UniProt Q8NER1).
T1 construct: expressed in transfected cells; host or cells: CHO K1 cells (ECACC), stably transfected
Kind of assay: FLIPR Ca2+ influx assay on CHO K1 cells transfected with the VR1 gene (pharmacological method II). In kind it is cell-based. Conditions: table 4; capsaicin; read-out: Ki (human) Cap.

Usually Ki stands for the equilibrium dissociation constant of an inhibitor or competing ligand from its target.

T1 sequence (Q8NER1 whole entry): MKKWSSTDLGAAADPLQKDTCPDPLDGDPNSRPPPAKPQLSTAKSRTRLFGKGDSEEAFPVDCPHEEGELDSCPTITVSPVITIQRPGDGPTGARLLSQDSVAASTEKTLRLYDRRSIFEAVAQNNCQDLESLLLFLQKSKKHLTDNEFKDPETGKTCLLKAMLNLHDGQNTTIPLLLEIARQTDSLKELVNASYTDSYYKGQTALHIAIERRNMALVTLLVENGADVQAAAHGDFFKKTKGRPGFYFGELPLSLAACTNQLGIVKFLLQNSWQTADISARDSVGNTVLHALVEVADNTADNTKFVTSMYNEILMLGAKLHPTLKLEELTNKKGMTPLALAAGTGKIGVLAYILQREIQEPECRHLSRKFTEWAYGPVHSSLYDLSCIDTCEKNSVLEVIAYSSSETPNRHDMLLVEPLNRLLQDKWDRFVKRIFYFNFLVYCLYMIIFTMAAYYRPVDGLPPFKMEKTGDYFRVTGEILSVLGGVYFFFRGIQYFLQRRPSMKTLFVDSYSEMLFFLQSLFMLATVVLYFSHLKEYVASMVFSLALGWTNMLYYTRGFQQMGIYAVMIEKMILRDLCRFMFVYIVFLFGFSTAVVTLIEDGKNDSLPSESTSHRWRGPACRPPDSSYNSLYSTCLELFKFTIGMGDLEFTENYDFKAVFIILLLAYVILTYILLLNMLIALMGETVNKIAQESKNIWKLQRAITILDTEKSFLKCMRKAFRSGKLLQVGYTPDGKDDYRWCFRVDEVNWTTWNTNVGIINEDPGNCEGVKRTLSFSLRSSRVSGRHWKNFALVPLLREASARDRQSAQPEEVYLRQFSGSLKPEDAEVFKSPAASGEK

Consider `Cc1ccc(Cl)cc1Nc1nc(C(F)(F)F)ccc1CNC(=O)C(C)c1ccc(NS(C)(=O)=O)c(F)c1` (stereo not drawn) [Example 136, N-[2-(5-chloro-2-methyl-phenylamino)-6-trifluoromethyl-pyridin-3-ylmethyl]-2-(3-fluoro-4-methylsulfonamido-phenyl)-propionamide], for which the inhibition in vivo at 0.3 mg/kg in assay [1] (0.3 mg/kg body weight po) worked out at 43%. In assay [2] (0.01 mg/kg body weight po), the “inhibition Bennet model (n = 10)” value was found to be 0.01 po 13%. Further, at vanilloid receptor (VR1), the Ki is 14 nM.

`CC(C(=O)NCc1ccc(C(F)(F)F)nc1OCCC(C)(C)C)c1ccc(NS(C)(=O)=O)c(F)c1` (stereo not drawn) [Example 125]: in assay [1], the inhibition in vivo at 0.1 mg/kg amounted to 5%. The “inhibition Bennet model (n = 10)” value in assay [2] (0.01 mg/kg body weight po) amounted to 0.01 po 17%. For the same molecule, the Ki at vanilloid receptor (VR1) is 0.9 nM.

On to `CC(C(=O)NCc1ccc(C(C)(C)C)nc1OC1CCCC1)c1ccc(NS(C)(=O)=O)c(F)c1` (stereo not drawn) [Example 234, N-(6-tert-butyl-2-cyclopentyloxy-pyridin-3-ylmethyl)-2-(3-fluoro-4-methylsulfonamido-phenyl)-propionamide], for which the inhibition in vivo at 0.1 mg/kg in assay [1] stood at 19%. The “inhibition Bennet model (n = 10)” value in assay [2] (0.001 mg/kg body weight po) turned out to be 0.001 po 26%. Further, the Ki on vanilloid receptor (VR1) was determined as 1.5 nM.
